Experiment: wn = mass fraction of the nth substance listed
Conditions: Gas, Burnett expansion method

FCC(F)(F)F [1,1,1,2-tetrafluoroethane] + CCC
Conditions | mass density [kg/m3]
304.25 K, 324.7 kPa, w2 = 0.45 | 8.75837
304.25 K, 423.5 kPa, w2 = 0.45 | 11.6666
304.25 K, 550.2 kPa, w2 = 0.45 | 15.5404
304.25 K, 710 kPa, w2 = 0.45 | 20.7007
306.96 K, 235.2 kPa, w2 = 0.65 | 5.2834
306.96 K, 309.8 kPa, w2 = 0.65 | 7.0255
306.96 K, 406.3 kPa, w2 = 0.65 | 9.3418
306.96 K, 530 kPa, w2 = 0.65 | 12.4219
306.96 K, 1095.4 kPa, w2 = 0.55 | 36.0371
306.97 K, 260.5 kPa, w2 = 0.55 | 6.5188
306.97 K, 673.4 kPa, w2 = 0.55 | 20.3802
306.97 K, 686.8 kPa, w2 = 0.65 | 16.5173
306.97 K, 865 kPa, w2 = 0.55 | 27.1004
306.97 K, 880.8 kPa, w2 = 0.65 | 21.9632
306.98 K, 343.1 kPa, w2 = 0.55 | 8.6681
306.98 K, 449.3 kPa, w2 = 0.55 | 11.5262
306.98 K, 519.6 kPa, w2 = 0.55 | 15.3262
307 K, 1113.5 kPa, w2 = 0.65 | 29.2029
307.04 K, 1304.3 kPa, w2 = 0.6 | 37.3883
307.05 K, 823.4 kPa, w2 = 0.6 | 21.1446
307.06 K, 286.9 kPa, w2 = 0.6 | 6.763
307.06 K, 376.9 kPa, w2 = 0.6 | 8.993
307.06 K, 492.8 kPa, w2 = 0.6 | 11.9584
307.06 K, 640 kPa, w2 = 0.6 | 15.901
307.06 K, 1046.1 kPa, w2 = 0.6 | 28.116
308.12 K, 266.9 kPa, w2 = 0.5 | 6.72365
308.12 K, 346.4 kPa, w2 = 0.5 | 8.95632
308.12 K, 447.5 kPa, w2 = 0.5 | 11.9301
308.12 K, 577.6 kPa, w2 = 0.5 | 15.8911
308.12 K, 742.5 kPa, w2 = 0.5 | 21.1679
308.13 K, 944.9 kPa, w2 = 0.5 | 28.196
308.14 K, 1188.3 kPa, w2 = 0.5 | 37.5563
308.15 K, 263.5 kPa, w2 = 0.45 | 6.89941
308.2 K, 1234.2 kPa, w2 = 0.45 | 38.5343
308.21 K, 980.9 kPa, w2 = 0.45 | 28.9282
308.22 K, 346.6 kPa, w2 = 0.45 | 9.18817
308.22 K, 454.6 kPa, w2 = 0.45 | 12.2393
308.22 K, 592.6 kPa, w2 = 0.45 | 16.3032
308.22 K, 766.7 kPa, w2 = 0.45 | 21.7165
308.23 K, 960.1 kPa, w2 = 0.4 | 29.795
308.24 K, 751.6 kPa, w2 = 0.4 | 22.3672
308.24 K, 1208.1 kPa, w2 = 0.4 | 39.6876
308.25 K, 447.1 kPa, w2 = 0.4 | 12.6056
308.25 K, 581.8 kPa, w2 = 0.4 | 16.7913
308.26 K, 197.5 kPa, w2 = 0.4 | 5.33332
308.26 K, 260.1 kPa, w2 = 0.4 | 7.10429
308.26 K, 341.6 kPa, w2 = 0.4 | 9.46322
311.01 K, 747.3 kPa, w2 = 0.65 | 17.8403
311.01 K, 956.7 kPa, w2 = 0.65 | 23.7227
311.01 K, 1206.7 kPa, w2 = 0.65 | 31.545
311.02 K, 256.8 kPa, w2 = 0.65 | 5.8063
311.02 K, 338 kPa, w2 = 0.65 | 7.5979
311.02 K, 383.5 kPa, w2 = 0.55 | 9.3582
311.02 K, 443.1 kPa, w2 = 0.65 | 10.0895
311.02 K, 500.4 kPa, w2 = 0.55 | 12.444
311.02 K, 577.7 kPa, w2 = 0.65 | 13.4164
311.02 K, 837.9 kPa, w2 = 0.55 | 22.003
311.02 K, 1067.2 kPa, w2 = 0.55 | 29.258
311.02 K, 1334.9 kPa, w2 = 0.55 | 38.9056
311.03 K, 650.6 kPa, w2 = 0.55 | 16.547
311.06 K, 1343.8 kPa, w2 = 0.6 | 37.8297
311.07 K, 294.6 kPa, w2 = 0.6 | 6.8432
311.07 K, 386.9 kPa, w2 = 0.6 | 9.1
311.07 K, 505.8 kPa, w2 = 0.6 | 12.1
311.07 K, 657.2 kPa, w2 = 0.6 | 16.0896
311.07 K, 846.4 kPa, w2 = 0.6 | 21.3948
311.07 K, 1076.1 kPa, w2 = 0.6 | 28.4489
312.09 K, 1147.3 kPa, w2 = 0.4 | 36.0778
312.09 K, 1427.9 kPa, w2 = 0.4 | 48.057
312.1 K, 240.2 kPa, w2 = 0.4 | 6.45834
312.1 K, 415.1 kPa, w2 = 0.4 | 11.4592
312.1 K, 542.2 kPa, w2 = 0.4 | 15.2643
312.1 K, 703.7 kPa, w2 = 0.4 | 20.3326
312.1 K, 904.5 kPa, w2 = 0.4 | 27.0838
312.11 K, 316.2 kPa, w2 = 0.4 | 8.60266
312.14 K, 1384.5 kPa, w2 = 0.45 | 44.9611
312.16 K, 1108.9 kPa, w2 = 0.45 | 33.7517

— the NIST ThermoML archive (doi:10.1016/j.jct.2013.10.031)
